Experiments:
[1] = Inhibitory activity against cPLA2 was assessed from arachidonic acid (AA) release in cell free assay; format: functional
[2] = Inhibitory activity against cPLA2 was assessed from arachidonic acid (AA) release in U937 cells; format: functional, cell-based; conditions: U-937

- IC50 [1]: 1000 nM
- IC50 [2]: 1000 nM
Compound: CCCc1c(OCCCOc2ccc(C(CCCc3ccccc3)SCCC(=O)O)cc2)ccc(C(C)=O)c1O (configuration not stated)

Reference: ChEMBL document CHEMBL1150992, “Synthesis and preparation of an affinity chromatography column for the purification of cytosolic phospholipase A2” (Bioorg Med Chem Lett, 1995)
